From the NIST ThermoML archive (doi:10.1021/je025534p)
± gives the expanded uncertainty stated by the source.

Details: Liquid, Ebulliometric method (Recirculating still)

vapor or sublimation pressure (298 K)	vapor or sublimation pressure (303 K)	vapor or sublimation pressure (308 K)	vapor or sublimation pressure (313 K)	vapor or sublimation pressure (318 K)	vapor or sublimation pressure (323 K)	vapor or sublimation pressure (328 K)	vapor or sublimation pressure (333 K)	vapor or sublimation pressure (338 K)	vapor or sublimation pressure (343 K)	vapor or sublimation pressure (348 K)	vapor or sublimation pressure (353 K)	vapor or sublimation pressure (358 K)	vapor or sublimation pressure (363 K)	vapor or sublimation pressure (366 K)	vapor or sublimation pressure (356 K)	vapor or sublimation pressure (373 K)	Structure (SMILES)
8.89 ± 4 kPa	11.17 ± 4 kPa	13.9 ± 4 kPa	17.17 ± 4 kPa	21.04 ± 4 kPa	25.62 ± 4 kPa	30.97 ± 4 kPa	37.21 ± 4 kPa	44.43 ± 4 kPa	52.75 ± 4 kPa	62.29 ± 4 kPa	73.16 ± 4 kPa	85.51 ± 4 kPa	99.46 ± 4 kPa	99 ± 9.9 kPa			CC1COC(C)O1 (centres undefined) [2,4-dimethyl-1,3-dioxolane]
11.29 ± 4 kPa	14.2 ± 4 kPa	17.72 ± 4 kPa	21.98 ± 4 kPa	27.07 ± 4 kPa	33.15 ± 4 kPa	40.35 ± 4 kPa	48.83 ± 4 kPa	58.78 ± 4 kPa	70.39 ± 4 kPa	83.87 ± 4 kPa	99.46 ± 4 kPa				99 ± 9.9 kPa		CC1OCCO1 [2-methyl-1,3-dioxolane]
																99 ± 9.9 kPa	O [water]
